Laboratory results taken from patent US20050148633A1 (priority 2003, published 2005).

Key:
IL-2 production [1] = assay: Inhibition of IL-2 production in PHA-activated Jurkat cells (ELISA); assay type: cell-based; details: Homo sapiens, PHA 2.5 μg/mL, 20 hours, value bins
Protocol: Jurkat cells were placed in a 96 well plate (0.5 million cells per well in 1% FBS medium) then test compounds of this invention were added at different concentrations. After 10 minutes, the cells were activated with PHA (final concentration 2.5 μg/mL) and incubated for 20 hours at 37° C. under CO2. The final volume was 200 μL. Following incubation, the cells were centrifuged and the supernatants collected and stored at −70° C. prior to assaying for IL-2 production. A commercial ELISA kit (IL-2 Eli-pair, Diaclone Research, Besancon, France) was used to detect production of IL-2, from which dose response curves were obtained. The IC50 value was calculated as the concentration at which 50% of maximum IL-2 production after stimulation was inhibited versus a non-stimulation control.

TRPM4 = target: T1, TRPM4 (Homo sapiens, UniProt Q8TD43); assay: Activation of TRPM4 channel, whole-cell patch clamp in Jurkat cells and HEK-293 cells overexpressing TRPM4; assay type: cell-based; details: free intracellular calcium 300 nM
T1 construct: FLAG (N); expressed in transfected cells; host or cells: HEK 293 (tetracycline-induced FLAG-humanTRPM4/pCDNA4/TO); also Jurkat cells (endogenous TRPM4)
T1 sequence (Q8TD43 whole entry): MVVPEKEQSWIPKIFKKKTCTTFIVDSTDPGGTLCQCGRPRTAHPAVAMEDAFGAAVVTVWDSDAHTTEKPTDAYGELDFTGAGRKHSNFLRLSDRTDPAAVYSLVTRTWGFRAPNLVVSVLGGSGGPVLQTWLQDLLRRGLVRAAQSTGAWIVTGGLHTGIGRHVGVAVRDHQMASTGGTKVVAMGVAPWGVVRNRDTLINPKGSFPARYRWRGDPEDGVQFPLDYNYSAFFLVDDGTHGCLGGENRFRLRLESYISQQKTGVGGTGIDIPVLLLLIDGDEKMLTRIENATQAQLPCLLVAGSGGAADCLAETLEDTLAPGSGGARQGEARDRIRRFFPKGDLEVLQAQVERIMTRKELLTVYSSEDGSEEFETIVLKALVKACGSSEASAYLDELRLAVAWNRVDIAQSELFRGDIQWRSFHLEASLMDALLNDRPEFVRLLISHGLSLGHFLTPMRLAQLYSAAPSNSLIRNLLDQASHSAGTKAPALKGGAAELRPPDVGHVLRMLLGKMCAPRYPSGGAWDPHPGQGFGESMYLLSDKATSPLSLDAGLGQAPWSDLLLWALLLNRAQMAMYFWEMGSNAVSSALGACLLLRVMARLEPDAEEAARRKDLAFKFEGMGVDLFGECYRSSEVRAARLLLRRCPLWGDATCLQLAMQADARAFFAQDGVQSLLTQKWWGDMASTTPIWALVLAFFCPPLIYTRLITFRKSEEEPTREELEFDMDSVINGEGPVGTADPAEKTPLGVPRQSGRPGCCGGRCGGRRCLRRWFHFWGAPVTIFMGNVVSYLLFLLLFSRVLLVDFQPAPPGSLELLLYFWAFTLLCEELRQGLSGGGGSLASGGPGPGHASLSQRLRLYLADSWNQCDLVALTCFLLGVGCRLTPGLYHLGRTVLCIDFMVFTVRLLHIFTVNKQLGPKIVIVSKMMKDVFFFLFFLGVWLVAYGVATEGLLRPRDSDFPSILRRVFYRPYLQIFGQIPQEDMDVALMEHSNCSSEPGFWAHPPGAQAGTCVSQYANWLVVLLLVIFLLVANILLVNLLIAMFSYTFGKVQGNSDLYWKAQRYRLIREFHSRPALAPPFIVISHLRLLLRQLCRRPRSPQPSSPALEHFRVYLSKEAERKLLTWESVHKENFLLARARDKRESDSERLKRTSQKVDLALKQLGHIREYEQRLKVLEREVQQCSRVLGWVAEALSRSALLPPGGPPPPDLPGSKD
Protocol: Human leukemic T cells (Jurkat cells) and HEK 293 cells transfected with the FLAG-humanTRPM4/pCDNA4/TO construct were grown on glass coverslips with DMEM medium supplemented with 10% FBS, blasticidin (5 μg/mL) and zeocin ([…]). TRPM4 expression was induced one day before use by adding 1 μg/mL tetracycline to the culture medium and patch clamp experiments were performed 16-24 hours post-induction (for additional details see Launay et al. (2000)).
Patch clamp experiments were performed in the tight-seal whole-cell configuration at 21-25° C. High resolution current recordings were acquired by a computer-based patch clamp amplifier system (EPC-9, HEKA, Lambrecht, Germany). Patch pipettes had resistances between […] after filling with the standard intracellular solution. […] Capacitive currents and series resistance were determined and corrected before each voltage ramp using the automatic capacitance compensation of the EPC-9. The low resolution temporal development of membrane currents was assessed by extracting the current amplitude at −80 mV or +80 mV from individual ramp current records.
TRPM4 currents were measured in Jurkat cells and HEK-293 cells overexpressing TRPM4. […]

[2] = tested on: CRAC ion channel (ICRAC current); assay: Patch clamp inhibition of ICRAC current in Jurkat cells; assay type: cell-based, human; details: 1 μM compound, n=3
Protocol: In general, a whole cell patch clamp method was used to examine the effects of a compound of the invention on a channel that mediates Icrac. In such experiments, a baseline measurement was established for a patched cell. Then a compound to be tested was perfused (or puffed) to cells in the external solution and the effect of the compound on Icrac was measured. A compound that modulates Icrac (e.g., inhibits) is a compound that is useful in the invention for modulating CRAC ion channel activity.
Jurkat T cells were grown on glass coverslips, transferred to the recording chamber and kept in a standard modified Ringers solution of the following composition: NaCl 145 mM, KCl 2.8 mM, CsCl 10 mM, CaCl2 10 mM, MgCl2 2 mM, glucose 10 mM, HEPES.NaOH 10 mM, pH 7.2.
The external solution contained 10 mM CaNaR, 11.5 mM glucose and the test compound at the concentrations described below.
The standard intracellular pipette solution contained: Cs-glutamate 145 mM, NaCl 8 mM, MgCl2 1 mM, ATP 0.5 mM, GTP 0.3 mM, pH 7.2 adjusted with CsOH. […]
Patch-clamp experiments were performed in the tight-seal whole-cell configuration at 21-25° C. […] Capacitive currents and series resistance were determined and corrected before each voltage ramp using the automatic capacitance compensation of the EPC-9. […]

GM-CSF = assay: Cytokine inhibition in PHA-stimulated primary human PBMCs: GM-CSF; assay type: cell-based; details: PBMC
Protocol: (§1) Cytokine production was measured using commercially available human ELISA assay kits (from Cell Science, Inc.) following the manufacturers instructions.

[3] = tested on: CRAC ion channel (ICRAC current); assay: Patch clamp inhibition of ICRAC current in primary T cells; assay type: cell-based; details: primary human T cells, varying concentrations
Protocol: Membrane currents of individual cells were recorded using the whole-cell configuration of the patch clamp technique with an EPC10 (HEKA Electronik, Lambrecht, Germany). Electrodes (2-5 MD in resistance) were fashioned from borosilicate glass capillary tubes (Sutter Instruments, Novato, Ca). The recordings were done at room temperature.
ICRAC currents were monitored every 2 seconds using a 50 msec protocol, where the voltage was ramped from −100 mV to +100 mV. The membrane potential was held at 0 mV between the test ramps. In a typical experiment the peak inward currents would develop within 50-100 seconds. Once the ICRAC currents were stabilized, the cells were perfused with compounds in the extracellular solution. At the end of an experiment the remaining ICRAC currents were then challenged with a control compound (SKF96365, 10 μM) to ensure that the current could still be inhibited.
The ICRAC current level was determined by measuring the inward current amplitude at −80 mV of the voltage ramp in an off-line analysis using MATLAB. The ICRAC current inhibition for each concentration was calculated using peak amplitude in the beginning of the experiment from the same cell. The IC50 value and Hill coefficient for each compound was estimated by fitting all the individual data points to a single Hill equation. […]

IL-5 = assay: Cytokine inhibition in PHA-stimulated primary human PBMCs: IL-5; assay type: cell-based; details: PBMC
Protocol: as §1

TNF-α production = TNF-α production upon PMA/ionomycin stimulation in whole blood of dosed cynomolgus monkeys; assay type: in vivo; details: IV 5 mg/kg, 4 hours after dosing
Protocol: (§2) 3 male non-native cynomolgus monkeys were fasted overnight prior to and for four (4) hours following each dose. Each monkey was given a single intravenous dose of the appropriate test compound followed by a 1 mL rinse of saline to flush the catheter. The dose was infused over one hour using calibrated syringe pumps. Following a one week washout, the same three monkeys were given a single oral gavage dose of the appropriate test compound dose formulation followed by a 10 mL flush with tap water. Following a second one week washout, the same three monkeys received a second oral dose of the appropriate test compound dose formulation followed by a 10 mL flush with tap water. Following a third one week washout, the same three monkeys received a third oral dose of the appropriate test compound dose formulation followed by a 10 mL flush with tap water. Prior to and at 1, 2, and 4 hours following each dose (measured from the start of dosing for IV doses), blood samples ([…] for Group 1 and 2 mL/sample for Groups 2 and 3) were drawn into tubes containing sodium heparin and stored at room temperature, and the concentration of the test compounds in each sample was measured. CsA was included as a positive control.

TNF-α = assay: Cytokine inhibition in PHA-stimulated primary human PBMCs: TNF-α; assay type: cell-based; details: PBMC
Protocol: as §1

IL-13 = assay: Cytokine inhibition in PHA-stimulated primary human PBMCs: IL-13; assay type: cell-based; details: PBMC
Protocol: as §1

INF-γ = assay: Cytokine inhibition in PHA-stimulated primary human PBMCs: INF-γ; assay type: cell-based; details: PBMC
Protocol: as §1

IL-2 production [4] = assay: IL-2 production upon PMA/ionomycin stimulation in whole blood of dosed cynomolgus monkeys; assay type: in vivo; details: IV 5 mg/kg, 4 hours after dosing
Protocol: as §2

IL-2 = assay: Cytokine inhibition in PHA-stimulated primary human PBMCs: IL-2; assay type: cell-based; details: PBMC
Protocol: as §1

RBL cells = assay: Inhibition of degranulation in RBL cells; assay type: cell-based; details: Rattus norvegicus, anti-DNP IgE / anti-IgE, read-out: concentration at which 50% of degranulation is inhibited
Protocol: Procedure: • The day before the assay was performed, RBL cells, that had been grown to confluence in a 96 well plate, were incubated at 37° C. for at least 2 hours. The medium was replaced in each well with 100 μL of fresh medium containing of anti-DNP IgE.
On the following day, the cells were washed once with PRS (2.6 mM glucose and 0.1% BSA) and 160 μL of PRS was added to each well. The test compound was addded to a well in a 20 μL solution at 10× of the desired concentration and incubated for 20 to 40 minutes at 37° C. 20 μL of 10× mouse anti-IgE (10 μL/mL). Maximum degranulation occurred between 15 to 40 minutes after addition of anti-IgE.

IL-10 = assay: Cytokine inhibition in PHA-stimulated primary human PBMCs: IL-10; assay type: cell-based; details: PBMC
Protocol: as §1

IL-4 = assay: Cytokine inhibition in PHA-stimulated primary human PBMCs: IL-4; assay type: cell-based; details: PBMC
Protocol: as §1

Structure (SMILES)	IC50 (IL-2 production [1]) [nM]	EC50 (TRPM4) [nM]	inhibition of Icrac in Jurkat cells [2] [%]	IC50 (GM-CSF) [nM]	inhibition of ICRAC current in primary T cells compared with RBL cells (FIG. 1) [3]	IC50 (IL-5) [nM]	TNF-α production after IV infusion (FIG. 4) (TNF-α production)	IC50 (TNF-α) [nM]	IC50 (IL-13) [nM]	IC50 (INF-γ) [nM]	IL-2 production after IV infusion (FIG. 3) (IL-2 production [4])	IC50 (IL-2) [nM]	IC50 (RBL cells) [nM]	IC50 (IL-10) [nM]	IC50 (IL-4) [nM]
O=C(Nc1ccc(-c2cc(C(F)(F)F)ccc2Cl)cc1)c1cccc(F)c1F [Compound 23]	< 100	20 to 50													
Cc1nnsc1C(=O)Nc1ccc(-c2cc(C(F)(F)F)ccc2C(F)(F)F)cc1 [Compound 24, 4-Methyl-[1,2,3]thiadiazole-5-carboxylic acid (2′,5′-bis-trifluoromethyl-biphenyl-4-yl)-amide]	< 100	20 to 50													
COc1ccc(OC)c(-c2ccc(NC(=O)c3cccc(F)c3F)cc2)c1 [Compound 31, N-(2′,5′-Dimethoxy-biphenyl-4-yl)-2,3-difluoro-benzamide]			> 43	97	inhibits ICRAC current equally well in primary T cells as in RBL cells	11	significantly inhibit TNF-α production	68	51	42	significantly inhibit IL-2 production	6	380	> 1000	71
COc1ccc(OC)c(-c2ccc(NC(=O)c3ccncc3F)cc2)c1 [Compound 66, 3-fluoro-pyridine-4-carboxylic acid (2′,5′-dimethoxybiphenyl-4-yl)-amide]	< 100		> 90	448		21		271	75	88		20	430	> 1000	445
CSc1ccccc1-c1ccc(NC(=O)c2ccncc2C)cc1 [Compound 75, 3-methyl-pyridine-4-carboxylic acid (2′-methylsulfanyl-biphenyl-4-yl)-amide]	< 100			152		7		81	15	23		4		> 1000	103
